Reference: patent US4221789A, “Lactam-N-acetic acids and their amides” (UCB, Societe Anonyme, priority 1978, dated 1980)
Structures can show the parent of a compound that is named as a salt. Where two headings read alike, the source gives them in different places.

Tests used:
rat [1] = test: active avoidance test (memory retention; paw withdrawal threshold); assay type: in vivo; settings: for minimal effective dose: sc, read-out: Active dose
Description: (A) The action on mnemic processes is first shown by the ability of the compounds to improve a type of memory retention in the rat. The principle of the active avoidance test (see M. GREINDL and S. PREAT, Arch.Int. Pharmacodyn.Therap.223,(1976),(1),168-171) developed in our laboratories and used for this purpose, may be described as follows: the withdrawal reaction of a rat's paw when subjected to an increasing, quantified pressure is observed. The pressure at which the withdrawal reaction is produced, is called the reaction threshold. This threshold is expressed by the number of graduations of the scale of the apparatus used (Analgesymeter Ugo Basile, Milan) and thus corresponds to the minimum pressure which brings about withdrawal when applied to the animal's paw. It is read off directly on the scale of the apparatus used.
Inversely, animals treated with a substance having a positive effect on the mnemic processes (such as piracetam) show a significant degree of retention: the stimulus to which the rats react by a reflex of avoidance is statistically lower than that of the control animals. A minimum of 20 rats per test are used (10 treated rats and 10 control rats) and the active dose is defined as the minimum dose lowering the stimulus to below 11 graduations.

rat [2] = test: reduction of the spinal fixation time; assay type: in vivo; settings: for minimal effective dose: ip, 35 min, read-out: Active dose
Description: (B) The action on the mnemic processes is also shown by the reduction of the spinal fixation time, a test which has been described in literature (see C. GIURGEA and F. MOURAVIEFF-LESUISSE, Arch.Int.Pharmacodyn.191,(1971,No. 2), 279) as an elementary model of memory and which provides pharmacological reactivity in good correlation with clinical physiopathology. In the rat, after unilateral lesion of the cerebellum, there is a postural asymmetry of the hind paws. This asymmetry may-persist, even after spinal section, if the animal has passed a sufficient period of time in this position. This time, which is called the spinal fixation time, is 45 minutes under the experimental conditions applied here.
On the other hand, if spinal section is performed before the expiry of this period of time, for example 35 minutes after the onset of asymmetry, the latter disappears.
Inversely, any product which allows the rats to retain the asymmetry (thus effecting spinal fixation), when the spinal section is performed after 35 minutes, is considered to be active.
By "number of animals" is to be understood the number of animals which responded positively to the test in relation to the number of animals tested at the dose indicated: […]

mice = test: toxicity in mice, intraperitoneal (Irwin's test); assay type: in vivo
Description: The compounds of formula I have a remarkably low toxicity.
*Dose which brings about the death of one animal out of three in Irwin's
test (S. IRWIN, Gordon Research Conference on Medicinal Chemistry, Colby
Junior College, New London, 1959).

[3] = tested on: papillary muscle isolated from the cat's heart; test: "papillary muscle" test (inotropic activity); settings: for activation at 10 µg/kg, 0.01 mg/kg: Felis catus, read-out: increase of the strength of muscular contraction
Protocol: The method used is that of M. K. CATTELL and H. GOLD (J.Pharmacol.Exptl. Therap.62, (1938), 116-125). The experiment is carried out on a papillary muscle isolated from the cat's heart and dipped in a physiological salt solution to which the compound to be tested is added.

[4] = toxicity in the rat, intravenous or oral (LD 50); settings: in vivo
Description: Furthermore, when administered intravenously (i.v.) or orally in the rat, the compounds also have a low toxicity, as indicated in the following Table: […]

[5] = rat, intraperitoneal, spinal section after 35 minutes
[6] = rat, intraperitoneal, 0.2 mmol/kg, spinal section after 35 minutes
[7] = rat, subcutaneous, minimum dose lowering the stimulus to below 11 graduations, tested 24 hours later
[8] = rat, intraperitoneal, 0.1 mmol/kg, spinal section after 35 minutes

Compound | minimal effective dose (rat [1]; Rattus norvegicus, 24 h) | Dose which brings about the death of one animal out of three in Irwin's test (mice; mouse, in vivo, ip) | Dose which brings about the death of one animal out of three in Irwin's test (mice; mice, intraperitoneal) | other results
NC(=O)CN1CCCC1=O [Compound A, 2-oxo-1-pyrrolidineacetamide, reference compound] | 25 µmol/kg | – | – | minimal effective dose (rat [2]; [5]): 200 µmol/kg; Number of animals which responded positively / number tested (rat [2]; [6]): 4/9
CCC(C(N)=O)N1CCCC1=O (stereo not drawn) [Compound B, alpha-ethyl-2-oxo-1-pyrrolidineacetamide, reference compound] | 5 µmol/kg | – | – | minimal effective dose (rat [2]; [5]): 200 µmol/kg; Number of animals which responded positively / number tested (rat [2]; [6]): 7/22
O=C(O)CN1CCCC1=O [Compound C, 2-oxo-1-pyrrolidineacetic acid, reference compound] | – | – | – | activity in the active avoidance test (rat [1]; rat, subcutaneous, at the dose of 0.1 mmol/kg): inactive; minimal effective dose (rat [2]; [5]): 320 µmol/kg; Number of animals which responded positively / number tested (rat [2]; rat, intraperitoneal, 0.32 mmol/kg, spinal section after 35 minutes): 2/4
O=C(O)C(O)N1CCCC1=O (stereo not drawn) [Example 2, alpha-Hydroxy-2-oxo-1-pyrrolidineacetic acid (dicyclohexylamine salt)] | – | > 102 mg/kg | – | minimal effective dose (rat [1]; [7]): 5 µmol/kg; minimal effective dose (rat [2]; [5]): 100 µmol/kg; Number of animals which responded positively / number tested (rat [2]; [8]): 4/7
O=C(O)C(CCO)N1CCCC1=O (stereo not drawn) [Example 3, alpha-(2-Hydroxyethyl)-2-oxo-1-pyrrolidineacetic acid] | – | > 1222 mg/kg | – | minimal effective dose (rat [2]; [5]): 100 µmol/kg; Number of animals which responded positively / number tested (rat [2]; [8]): 4/7
NC(=O)C(CCO)N1CCCC1=O (stereo not drawn) [Example 4.1, alpha-(2-Hydroxyethyl)-2-oxo-1-pyrrolidineacetamide] | 2 µmol/kg | – | > 1116 mg/kg | activation at 10 µg/kg, 0.01 mg/kg [3]: 7%; inotropic activity ([3]; isolated cat papillary muscle, comparison with caffeine): superior to that of caffeine; LD50 ([4]; iv): > 4000 mg/kg; LD50 ([4]; po, orally): > 10000 mg/kg; minimal effective dose (rat [2]; Rattus norvegicus): 100 µmol/kg; Number of animals which responded positively / number tested (rat [2]; [8]): 3/7
CC1CCN(C(CCO)C(N)=O)C1=O (stereo not drawn) [Example 4.2, alpha-(2-Hydroxyethyl)-3-methyl-2-oxo-1-pyrrolidineacetamide] | – | – | > 1200 mg/kg | –
CC1CC(C)N(C(CCO)C(N)=O)C1=O (stereo not drawn) [Example 4.3, alpha-(2-Hydroxyethyl)-3,5-dimethyl-2-oxo-1-pyrrolidineacetamide] | – | – | > 1286 mg/kg | –
CCCCC1CCN(C(CCO)C(N)=O)C1=O (stereo not drawn) [Example 4.4, 3-n-Butyl-alpha-(2-hydroxyethyl)-2-oxo-1-pyrrolidineacetamide] | – | > 1452 mg/kg | – | –
NC(=O)C(CCO)N1CC(c2ccc(Cl)cc2)C(c2ccccc2)C1=O (stereo not drawn) [Example 4.5, 4-p-Chlorophenyl-alpha-(2-hydroxyethyl)-3-phenyl-2-oxo-1-pyrrolidineacetamide] | – | > 224 mg/kg | – | –
CCCCNC(=O)C(CCO)N1CCCC1=O (stereo not drawn) [Example 5.1, N-n-Butyl-alpha-(2-hydroxyethyl)-2-oxo-1-pyrrolidineacetamide] | – | – | > 1452 mg/kg | –
O=C(NC1CCCCC1)C(CCO)N1CCCC1=O (stereo not drawn) [Example 5.2, N-Cyclohexyl-alpha-(2-hydroxyethyl)-2-oxo-1-pyrrolidineacetamide] | – | > 1608 mg/kg | – | –
CCN(CC)C(=O)C(CCO)N1CCCC1=O (stereo not drawn) [Example 5.3, N,N-Diethyl-alpha-(2-hydroxyethyl)-2-oxo-1-pyrrolidineacetamide] | 0.2 µmol/kg | – | > 1452 mg/kg | –
CC(C)NC(=O)C(CCO)N1CCCC1=O (stereo not drawn) [Example 5.4, alpha-(2-Hydroxyethyl)-N-isopropyl-2-oxo-1-pyrrolidineacetamide] | – | – | > 1368 mg/kg | –
O=C(C(CCO)N1CCCC1=O)N1CCOCC1 (centres unmarked) [Example 6.1, 4-[4-Hydroxy-2-(2-oxo-1-pyrrolidinyl)butyryl]-morpholine] | 0.2 µmol/kg | – | > 1536 mg/kg | –
O=C(C(CCO)N1CCCC1=O)N1CCCCC1 (centres unmarked) [Example 6.2, 1-[4-Hydroxy-2-(2-oxo-1-pyrrolidinyl)butyryl]-piperidine] | – | – | > 1524 mg/kg | –
CCCNC(=O)C(CCO)N1CCCC1=O (stereo not drawn) [Example 6.3, alpha-(2-Hydroxyethyl)-N-propyl-2-oxo-1-pyrrolidineacetamide] | 0.1 µmol/kg | – | > 1368 mg/kg | –
O=C(C(CCO)N1CCCC1=O)N1CCN(Cc2ccccc2)CC1 (centres unmarked) [Example 6.4, 1-Benzyl-4-[4-hydroxy-2-(2-oxo-1-pyrrolidinyl)butyryl]-piperazine] | – | > 345 mg/kg | – | minimal effective dose (rat [1]; [7]): 1 µmol/kg
O=C(NC1CCCC1)C(CCO)N1CCCC1=O (stereo not drawn) [Example 6.5, N-cyclopentyl-alpha-(2-hydroxyethyl)-2-oxo-1-pyrrolidineacetamide] | – | > 762 mg/kg | – | minimal effective dose (rat [1]; [7]): 0.2 µmol/kg
O=C(NCc1ccccc1)C(CCO)N1CCCC1=O (stereo not drawn) [Example 6.6, N-Benzyl-alpha-(2-hydroxyethyl)-2-oxo-1-pyrrolidineacetamide] | 2 µmol/kg | – | 822 mg/kg | minimal effective dose (rat [2]; Rattus norvegicus): 100 µmol/kg; Number of animals which responded positively / number tested (rat [2]; [8]): 3/7
Cn1c(=O)c2c(ncn2C)n(C)c1=O [caffeine, reference compound] | – | – | – | activation at 10 µg/kg, 0.01 mg/kg ([3]; isolated cat papillary muscle, at the dose of 10 μg/kg): 4%
